ChEMBL document CHEMBL5346925, “3,4-Dihydrobenzo[e][1,2,3]oxathiazine 2,2-dioxide analogs act as potential AMPA receptor potentiators with antidepressant activity” (Eur J Med Chem, 2023)
Calls of active or inactive are those of the source. No cut-off for these calls is given here.

Experiments:
[1] = Drug concentration in Sprague-Dawley rat brain at 1 mg/kg, po measured after 1 hr by LC-MS/MS analysis; type: ADME, organism-based; details: read-out: Ct
[2] = Ratio of drug concentration in brain to plasma in Sprague-Dawley rat at 1 mg/kg, po measured after 0.50 hrs by LC-MS/MS analysis; type: ADME, organism-based; details: read-out: BPR
[3] = Clearance in Sprague-Dawley rat at 0.1 mg/kg, iv by LC-MS/MS analysis; type: ADME, organism-based; details: in vivo
[4] = target: Glutamate receptor ionotropic, AMPA (Rattus norvegicus) (UniProt P19491+P19492+P19493+P19490); assay: Agonist activity at AMPA receptor in rat Primary neuron cells assessed as potentiation of s-AMPA induced calcium flux at 1 uM incubated for 1 hr by calcium 2+ influx assay relative to s-AMPA coupled TAK-137; type: cell-based; details: filed as agonist
[5] = Drug concentration in Sprague-Dawley rat brain at 1 mg/kg, po measured after 0.25 hr by LC-MS/MS analysis; type: ADME, organism-based; details: read-out: Ct
[6] = Toxicity in mouse assessed as histopathological changes in lung at 0.2 to 0.4 mg/kg, ip administered once daily for 2 weeks and measured after 15 days by H and E staining based analysis; type: organism-based; details: in vivo, 360 h, dose 0.2-0.4 mg/kg, time 15 day
[7] = AUC (0 to t) in Sprague-Dawley rat at 1 mg/kg, po by LC-MS/MS analysis; type: ADME, organism-based; design: dose 1 mg/kg, route po; details: in vivo
Mus musculus = assay: Antidepressant activity in chronic restraint induced depressive mouse assessed as rescue in sucrose preference at 0.03 to 0.05 mg/kg administered for 2 days after 16th day by sucrose preference test; type: functional, organism-based; details: dose 0.03-0.05 mg/kg, time 2.0 day
[8] = AUC (0 to t) in Sprague-Dawley rat at 0.1 mg/kg, iv by LC-MS/MS analysis; type: ADME, organism-based; design: dose 0.1 mg/kg, route iv; details: in vivo
[9] = Toxicity in mouse assessed as histopathological changes in heart at 0.2 to 0.4 mg/kg, ip administered once daily for 2 weeks and measured after 15 days by H and E staining based analysis; type: organism-based; details: in vivo, 360 h, dose 0.2-0.4 mg/kg, time 15 day

Q: With `O=S1(=O)NCc2cccc(-c3ccc(-c4ccccc4F)cc3)c2O1` as the compound, how does the concentration at 1 h [1] read?
A: 217 ng/g

Q: What about the Kp at 0.5 h [2] of the same compound?
A: 1.08

Q: What about the clearance [3] of the same compound?
A: 12.9 mL/min/kg

Q: What about the Activity [4] of the same compound?
A: 80.2%

Q: What about the concentration at 0.25 h [5] of the same compound?
A: 74.7 ng/g

Q: And the Activity [6]?
A: Non-Toxic

Q: And the AUC(0-t) [7]?
A: 805 ng·h/mL

Q: And the Activity (Mus musculus)?
A: Active

Q: And the AUC(0-t) [8]?
A: 120 ng·h/mL

Q: And the Activity [9]?
A: Non-Toxic
